Reference: US9540392B2, “Thienopyrimidines” (BAYER PHARMA AKTIENGESELLSCHAFT, priority 2012, dated 2017)

What follows are compounds tested against T1, human full-length MKNK1 (Homo sapiens, UniProt Q9BUB5, T385D) (assay: MKNK1 kinase high ATP assay (TR-FRET)). Settings: not given.
T1 construct: GST (N); purchased Carna Biosciences 02-145; host or cells: insect cells (baculovirus expression system)
Format: biochemical
Method in brief: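 Compound was preincubated 15 min at 22° C. with MKNK1 in 50 mM HEPES pH 7.5, 5 mM MgCl2, 1.0 mM DTT, then the reaction ran 30 min at 22° C. with 2 mM ATP and 0.06 μM biotinylated peptide (final).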

T1 sequence (Q9BUB5 1-424 isoform Q9BUB5-2 T344D): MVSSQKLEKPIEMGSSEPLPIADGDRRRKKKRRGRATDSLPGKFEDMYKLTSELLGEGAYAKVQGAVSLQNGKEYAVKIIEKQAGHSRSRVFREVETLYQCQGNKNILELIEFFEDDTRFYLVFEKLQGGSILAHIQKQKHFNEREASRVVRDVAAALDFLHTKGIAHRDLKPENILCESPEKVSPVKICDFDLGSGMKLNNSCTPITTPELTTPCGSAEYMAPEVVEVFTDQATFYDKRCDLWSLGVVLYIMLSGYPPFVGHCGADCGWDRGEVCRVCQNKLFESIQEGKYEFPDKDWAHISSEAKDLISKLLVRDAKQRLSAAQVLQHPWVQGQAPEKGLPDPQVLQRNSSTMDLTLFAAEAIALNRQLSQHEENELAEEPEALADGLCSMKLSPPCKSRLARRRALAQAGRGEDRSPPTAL

Question: COc1cc2[nH]ncc2cc1Nc1ncnc2sc3c(c12)CCC(C(=O)N1CCC(=O)CC1)C3 (racemic) [Example 174, (RS)-1-({4-[(6-Methoxy-1H-indazol-5-yl)amino]-5,6,7,8-tetrahydro[1]benzothieno[2,3-d]pyrimidin-7-yl}carbonyl)piperidin-4-one] was tested. Which IC50 did it give?
Answer: Its IC50 is 0.6 nM.

Same assay, conditions: 2 mM ATP, after preincubation with MKNK1; read-out: MKNK1 IC50 (MKNK1 high ATP)

Question: O=C(C1CCc2c(sc3ncnc(Nc4ccc5[nH]ncc5c4)c23)C1)N1CCN(Cc2ccccn2)CC1 (racemic) [Example 154, (RS)-[4-(1H-indazol-5-ylamino)-5,6,7,8-tetrahydro[1]benzothieno[2,3-d]pyrimidin-7-yl][4-(pyridin-2-ylmethyl)piperazin-1-yl]methanone] was tested. Which IC50 did it give?
Answer: Its IC50 is 28.8 nM.

Question: Which IC50 does the source give for O=C(C1CCc2c(sc3ncnc(Nc4ccc5[nH]ncc5c4)c23)C1)N1CCN(Cc2cccnc2)CC1 (racemic) [Example 155, (RS)-[4-(1H-indazol-5-ylamino)-5,6,7,8-tetrahydro[1]benzothieno[2,3-d]pyrimidin-7-yl][4-(pyridin-3-ylmethyl)piperazin-1-yl]methanone] here?
Answer: The IC50 was 18.3 nM.

Question: With CS(=O)(=O)N1CCN(C(=O)C2CCc3c(sc4ncnc(Nc5ccc6[nH]ncc6c5)c34)C2)CC1 (racemic) [Example 156, (RS)-[4-(1H-indazol-5-ylamino)-5,6,7,8-tetrahydro[1]benzothieno[2,3-d]pyrimidin-7-yl][4-(methylsulfonyl)piperazin-1-yl]methanone] as the compound, how does the IC50 read?
Answer: The IC50 was 18.3 nM.

Question: Which IC50 does the source give for CN(Cc1cnn(C)c1)C(=O)C1CCc2c(sc3ncnc(Nc4ccc5[nH]ncc5c4)c23)C1 (racemic) [Example 157, (RS)-4-(1H-indazol-5-ylamino)-N-methyl-N-[(1-methyl-1H-pyrazol-4-yl)methyl]-5,6,7,8-tetrahydro[1]benzothieno[2,3-d]pyrimidine-7-carboxamide] here?
Answer: Its IC50 is 38.1 nM.

Question: Which IC50 does the source give for Cn1cc(CNC(=O)C2CCc3c(sc4ncnc(Nc5ccc6[nH]ncc6c5)c34)C2)cn1 (racemic) [Example 158, (RS)-4-(1H-indazol-5-ylamino)-N-[(1-methyl-1H-pyrazol-4-yl)methyl]-5,6,7,8-tetrahydro[1]benzothieno[2,3-d]pyrimidine-7-carboxamide] here?
Answer: The IC50 was 16.5 nM.

Question: For O=C(C1CCc2c(sc3ncnc(Nc4ccc5[nH]ncc5c4)c23)C1)N1CC(O)C1 (racemic) [Example 159, (RS)-(3-hydroxyazetidin-1-yl)[4-(1H-indazol-5-ylamino)-5,6,7,8-tetrahydro[1]benzothieno[2,3-d]pyrimidin-7-yl]methanone], which IC50 is on record?
Answer: The IC50 was 14.4 nM.

Question: How did the IC50 turn out when COC(=O)N1CCN(C(=O)C2CCc3c(sc4ncnc(Nc5ccc6[nH]ncc6c5)c34)C2)CC1 (racemic) [Example 160, (RS)-methyl4-{[4-(1H-indazol-5-ylamino)-5,6,7,8-tetrahydro[1]benzothieno[2,3-d]pyrimidin-7-yl]carbonyl}piperazine-1-carboxylate] was run?
Answer: The IC50 was 31.1 nM.

Question: How did the IC50 turn out when CC(C)(NC(=O)C1CCc2c(sc3ncnc(Nc4ccc5[nH]ncc5c4)c23)C1)c1ccc(F)cc1 (racemic) [Example 161, (RS)-N-[2-(4-fluorophenyl)propan-2-yl]-4-(1H-indazol-5-ylamino)-5,6,7,8-tetrahydro[1]benzothieno[2,3-d]pyrimidine-7-carboxamide] was run?
Answer: Its IC50 is 3.2 nM.

Question: CN(Cc1ccsc1)C(=O)C1CCc2c(sc3ncnc(Nc4ccc5[nH]ncc5c4)c23)C1 (racemic) [Example 162, (RS)-4-(1H-indazol-5-ylamino)-N-methyl-N-(thiophen-3-ylmethyl)-5,6,7,8-tetrahydro[1]benzothieno[2,3-d]pyrimidine-7-carboxamide] was tested. Which IC50 did it give?
Answer: The IC50 was 5.3 nM.

Question: How did the IC50 turn out when CN(Cc1cccn1C)C(=O)C1CCc2c(sc3ncnc(Nc4ccc5[nH]ncc5c4)c23)C1 (racemic) [Example 163, (RS)-4-(1H-indazol-5-ylamino)-N-methyl-N-[(1-methyl-1H-pyrrol-2-yl)methyl]-5,6,7,8-tetrahydro[1]benzothieno[2,3-d]pyrimidine-7-carboxamide] was run?
Answer: Its IC50 is 12.4 nM.

Question: For CNC(=O)CN1CCN(C(=O)C2CCc3c(sc4ncnc(Nc5ccc6[nH]ncc6c5)c34)C2)CC1 (racemic) [Example 164, (RS)-2-(4-{[4-(1H-indazol-5-ylamino)-5,6,7,8-tetrahydro[1]benzothieno[2,3-d]pyrimidin-7-yl]carbonyl}piperazin-1-yl)-N-methylacetamide], which IC50 is on record?
Answer: The IC50 was 22.5 nM.

Question: With Cn1ccnc1CNC(=O)C1CCc2c(sc3ncnc(Nc4ccc5[nH]ncc5c4)c23)C1 (racemic) [Example 165, (RS)-4-(1H-indazol-5-ylamino)-N-[(1-methyl-1H-imidazol-2-yl)methyl]-5,6,7,8-tetrahydro[1]benzothieno[2,3-d]pyrimidine-7-carboxamide] as the compound, how does the IC50 read?
Answer: Its IC50 is 16.8 nM.

Question: For O=C(CN1CCN(C(=O)C2CCc3c(sc4ncnc(Nc5ccc6[nH]ncc6c5)c34)C2)CC1)NC1CC1 (racemic) [Example 166, (RS)-N-cyclopropyl-2-(4-{[4-(1H-indazol-5-ylamino)-5,6,7,8-tetrahydro[1]benzothieno[2,3-d]pyrimidin-7-yl]carbonyl}piperazin-1-yl)acetamide], which IC50 is on record?
Answer: The IC50 was 15.3 nM.

Question: For CN(CCN1CCCC1)C(=O)C1CCc2c(sc3ncnc(Nc4ccc5[nH]ncc5c4)c23)C1 (racemic) [Example 167, (RS)-4-(1H-indazol-5-ylamino)-N-methyl-N-[2-(pyrrolidin-1-yl)ethyl]-5,6,7,8-tetrahydro[1]benzothieno[2,3-d]pyrimidine-7-carboxamide], which IC50 is on record?
Answer: The IC50 was 14.9 nM.

Question: CC(=O)N1CCN(CCNC(=O)C2CCc3c(sc4ncnc(Nc5ccc6[nH]ncc6c5)c34)C2)CC1 (racemic) [Example 168, (RS)-N-[2-(4-acetylpiperazin-1-yl)ethyl]-4-(1H-indazol-5-ylamino)-5,6,7,8-tetrahydro[1]benzothieno[2,3-d]pyrimidine-7-carboxamide] was tested. Which IC50 did it give?
Answer: Its IC50 is 17.4 nM.

Question: Which IC50 does the source give for CC1CCN(CCN(C)C(=O)C2CCc3c(sc4ncnc(Nc5ccc6[nH]ncc6c5)c34)C2)CC1 (racemic) [Example 169, (RS)-4-(1H-indazol-5-ylamino)-N-methyl-N-[2-(4-methylpiperidin-1-yl)ethyl]-5,6,7,8-tetrahydro[1]benzothieno[2,3-d]pyrimidine-7-carboxamide] here?
Answer: The IC50 was 11.1 nM.

Question: Which IC50 does the source give for COc1cc2[nH]ncc2cc1Nc1ncnc2sc3c(c12)CCC(C(=O)N(C)CC(F)F)C3 (racemic) [Example 170, (RS)—N-(2,2-Difluoroethyl)-4-[(6-methoxy-1H-indazol-5-yl)amino]-N-methyl-5,6,7,8-tetrahydro[1]benzothieno[2,3-d]pyrimidine-7-carboxamide] here?
Answer: The IC50 was 0.8 nM.

Question: Which IC50 does the source give for CCN(CCO)C(=O)C1CCc2c(sc3ncnc(Nc4cc5cn[nH]c5cc4OC)c23)C1 (racemic) [Example 171, (RS)—N-Ethyl-N-(2-hydroxyethyl)-4-[(6-methoxy-1H-indazol-5-yl)amino]-5,6,7,8-tetrahydro[1]benzothieno[2,3-d]pyrimidine-7-carboxamide] here?
Answer: Its IC50 is 0.4 nM.

Question: For COc1cc2[nH]ncc2cc1Nc1ncnc2sc3c(c12)CCC(C(=O)N(C)CCO)C3 (racemic) [Example 172, (RS)—N-(2-Hydroxyethyl)-4-[(6-methoxy-1H-indazol-5-yl)amino]-N-methyl-5,6,7,8-tetrahydro[1]benzothieno[2,3-d]pyrimidine-7-carboxamide], which IC50 is on record?
Answer: Its IC50 is 0.4 nM.

Question: How did the IC50 turn out when COc1cc2[nH]ncc2cc1Nc1ncnc2sc3c(c12)CCC(C(=O)N(C)C(C)C)C3 (racemic) [Example 173, (RS)—N—Isopropyl-4-[(6-methoxy-1H-indazol-5-yl)amino]-N-methyl-5,6,7,8-tetrahydro[1]benzothieno[2,3-d]pyrimidine-7-carboxamide] was run?
Answer: The IC50 was 0.5 nM.

Question: With COc1cc2[nH]ncc2cc1Nc1ncnc2sc3c(c12)CCC(C(=O)N1CCOCC1)C3 (racemic) [Example 175, (RS)-{4-[(6-Methoxy-1H-indazol-5-yl)amino]-5,6,7,8-tetrahydro[1]benzothieno[2,3-d]pyrimidin-7-yl}(morpholin-4-yl)methanone] as the compound, how does the IC50 read?
Answer: Its IC50 is 0.5 nM.

Question: For COc1cc2[nH]ncc2cc1Nc1ncnc2sc3c(c12)CCC(C(=O)N1CCCCC1)C3 (racemic) [Example 176, (RS)-{4-[(6-Methoxy-1H-indazol-5-yl)amino]-5,6,7,8-tetrahydro[1]benzothieno[2,3-d]pyrimidin-7-yl}(piperidin-1-yl)methanone], which IC50 is on record?
Answer: Its IC50 is 0.5 nM.

Question: How did the IC50 turn out when COc1cc2[nH]ncc2cc1Nc1ncnc2sc3c(c12)CCC(C(=O)N1CCC1)C3 (racemic) [Example 177, (RS)-Azetidin-1-yl{4-[(6-methoxy-1H-indazol-5-yl)amino]-5,6,7,8-tetrahydro[1]benzothieno[2,3-d]pyrimidin-7-yl}methanone] was run?
Answer: The IC50 was 0.4 nM.

Question: With CCN(C)C(=O)C1CCc2c(sc3ncnc(Nc4cc5cn[nH]c5cc4OC)c23)C1 (racemic) [Example 179, (RS)—N-Ethyl-4-[(6-methoxy-1H-indazol-5-yl)amino]-N-methyl-5,6,7,8-tetrahydro[1]benzothieno[2,3-d]pyrimidine-7-carboxamide] as the compound, how does the IC50 read?
Answer: Its IC50 is 0.7 nM.

Question: COc1cc2[nH]ncc2cc1Nc1ncnc2sc3c(c12)CCC(C(=O)N1CCC(C)(C)C1)C3 (racemic) [Example 180, (RS)-(3,3-Dimethylpyrrolidin-1-yl){4-[(6-methoxy-1H-indazol-5-yl)amino]-5,6,7,8-tetrahydro[1]benzothieno[2,3-d]pyrimidin-7-yl}methanone] was tested. Which IC50 did it give?
Answer: The IC50 was 0.8 nM.

Question: For COc1cc2[nH]ncc2cc1Nc1ncnc2sc3c(c12)CCC(C(=O)N(C)C1CC1)C3 (racemic) [Example 181, (RS)—N—Cyclopropyl-4-[(6-methoxy-1H-indazol-5-yl)amino]-N-methyl-5,6,7,8-tetrahydro[1]benzothieno[2,3-d]pyrimidine-7-carboxamide], which IC50 is on record?
Answer: Its IC50 is 0.2 nM.

Question: COc1cc2[nH]ncc2cc1Nc1ncnc2sc3c(c12)CCC(C(=O)N(C)CC1CC1)C3 (racemic) [Example 182, (RS)—N-(Cyclopropylmethyl)-4-[(6-methoxy-1H-indazol-5-yl)amino]-N-methyl-5,6,7,8-tetrahydro[1]benzothieno[2,3-d]pyrimidine-7-carboxamide] was tested. Which IC50 did it give?
Answer: Its IC50 is 0.5 nM.
